# Where a name gives a salt, the structure may show the parent alone.
# Assays:
# [1] = In vivo pharmacokinetic evaluation in CD-1 mice; conditions: male, mouse, plasma; for half-life: IV, read-out: Half-life T1/2 (IV) (converted); for clearance: read-out: Clearance rate CL; for Vd: read-out: Tissue distribution Vdss; for AUC(0-t): PO, read-out: Area under drug-time curve AUC0-last PO; for bioavailability: read-out: Bioavailability F; for Cmax: read-out: Peak concentration Cmax
# Experimental: Experimental Example 2: In Vivo Pharmacokinetic Evaluation of Compounds in CD-1 Mice
# Experimental purpose: To test the in vivo pharmacokinetics of the compounds in CD-1 mice
# CD-1 mice (male, 7 to 9 weeks old)
# The rodent pharmacokinetic characteristics after intravenous injection and oral administration of the compounds were tested using a standard protocol. The candidate compound was prepared as a clear solution during the experiment and given to mice for single intravenous injection and oral administration. The vehicle for intravenous injection and oral administration was a mixed vehicle composed of 5% dimethyl sulfoxide and 95% 5% solutol. Four male CD-1 mice were used in this project. Two mice were administered intravenously (IV), and plasma samples were collected at 0 hours (before administration) and 0.0833, 0.25, 0.5, 1, 2, 4, 8, and 24 hours after administration. The other two mice were administered orally by gavage (PO), and plasma samples were collected at 0 hours (before administration) and 0.25, 0.5, 1, 2, 4, 8, and 24 hours after administration. The plasma concentration was quantitatively analyzed by LC-MS/MS analysis method, and the pharmacokinetic parameters were calculated, such as peak concentration (Cmax), clearance rate (CL), half-life (T1/2), […] (Vdss), area under drug-time curve (AUC0-last), bioavailability (F).
# [2] = molecular target: T1, hERG potassium ion channel (Homo sapiens, UniProt Q12809); assay: Inhibition test on hERG potassium ion channel (automated patch clamp, CHO-hERG cells); assay type: cell-based; conditions: Qpatch, highest test concentration 40.00 μM
# T1 construct: expressed in transfected cells; host or cells: CHO (CHO-hERG cell line)
# T1 sequence (Q12809 whole entry): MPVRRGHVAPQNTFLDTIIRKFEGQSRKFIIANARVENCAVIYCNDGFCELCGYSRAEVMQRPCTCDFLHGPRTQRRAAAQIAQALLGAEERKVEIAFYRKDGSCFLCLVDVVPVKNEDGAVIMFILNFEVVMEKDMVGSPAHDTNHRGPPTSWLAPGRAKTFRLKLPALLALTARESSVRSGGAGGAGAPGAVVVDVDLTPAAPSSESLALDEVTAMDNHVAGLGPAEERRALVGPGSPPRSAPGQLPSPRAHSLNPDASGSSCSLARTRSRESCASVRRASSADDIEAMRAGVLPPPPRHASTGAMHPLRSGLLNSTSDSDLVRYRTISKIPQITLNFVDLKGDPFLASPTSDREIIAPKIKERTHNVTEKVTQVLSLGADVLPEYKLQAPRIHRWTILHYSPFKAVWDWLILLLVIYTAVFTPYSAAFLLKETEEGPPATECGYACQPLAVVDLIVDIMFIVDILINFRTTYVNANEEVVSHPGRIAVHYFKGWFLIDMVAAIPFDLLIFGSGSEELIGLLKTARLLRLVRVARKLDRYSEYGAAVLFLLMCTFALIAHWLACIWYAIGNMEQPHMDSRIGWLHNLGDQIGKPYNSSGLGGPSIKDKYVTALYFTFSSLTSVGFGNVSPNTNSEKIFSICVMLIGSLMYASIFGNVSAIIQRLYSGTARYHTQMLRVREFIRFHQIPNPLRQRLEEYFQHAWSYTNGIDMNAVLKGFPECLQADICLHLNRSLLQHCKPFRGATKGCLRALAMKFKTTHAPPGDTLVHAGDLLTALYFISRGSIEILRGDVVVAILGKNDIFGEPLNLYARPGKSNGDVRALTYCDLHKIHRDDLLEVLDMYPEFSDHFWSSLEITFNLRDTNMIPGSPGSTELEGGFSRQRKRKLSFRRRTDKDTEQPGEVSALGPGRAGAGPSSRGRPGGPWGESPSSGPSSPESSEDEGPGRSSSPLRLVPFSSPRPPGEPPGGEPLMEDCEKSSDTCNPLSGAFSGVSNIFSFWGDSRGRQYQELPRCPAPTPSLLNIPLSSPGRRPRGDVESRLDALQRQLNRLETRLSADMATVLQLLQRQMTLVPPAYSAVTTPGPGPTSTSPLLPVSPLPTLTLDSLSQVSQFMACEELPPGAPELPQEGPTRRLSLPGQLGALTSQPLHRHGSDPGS
# Experimental: Experimental Example 4: Inhibition Test of Compounds on hERG Potassium Ion Channel
# Experimental purpose: To detect the effect of the compounds to be tested on the hERG potassium channel by an automated patch clamp method.
# 1.1 CHO-hERG cells were cultured in a 175 cm^2 culture flask. When the cell density reached 60 to 80%, the culture medium was removed, and the cells were washed once with 7 mL of PBS (phosphate buffered saline), and then digested with 3 mL of digestion solution.
# 1.2 After the digestion was completed, 7 mL of culture medium was added to neutralize, then the mixture was centrifuged, and the supernatant was aspirated, and then 5 mL of culture medium was added to re-suspend, ensuring 2 to 5×10^6/mL of cell density.
# The process of single cell high impedance sealing and whole cell mode formation were all automatically completed by Qpatch instrument, after obtaining the whole cell recording mode, the cells were clamped at −80 mV, before giving a 5-second +40 mV depolarization stimulus, a 50 millisecond −50 mV prevoltage was given first, and then repolarized to −50 mV for 5 seconds, then returned to −80 mV This voltage stimulation was applied every 15 seconds and after recording for 2 minutes, extracellular fluid was recordings for 5 minutes, and then the administration process was started. The compound concentration was given from the lowest test concentration, each test concentration was given for 2.5 minutes, and 3 μM of Cisapride as the positive control compound was given after all concentrations were continuously given. At least 3 cells (n≥3) were tested at each concentration.
# 4.1 The mother solution of the compound was diluted with DMSO, and 10 μL of mother solution of the compound was added to 20 μL of DMSO solution, and was 3-fold diluted continuously to 6 DMSO concentrations.
# 4.2 4 μL of compounds with 6 DMSO concentrations were added to 396 μL of extracellular fluid, 100-fold diluted to 6 intermediate concentrations, and then 80 μL of the compounds with 6 intermediate concentrations were added to 320 μL of extracellular fluid, 5-fold diluted to the final concentration to be tested.
# 4.3 The highest test concentration was 40.00 μM, in a total of 6 concentrations of 40.00, 13.33, 4.44, 1.48, 0.49, and 0.16 μM respectively.
# 4.4 The content of DMSO in the final test concentration was not more than 0.2%, and this concentration of DMSO had no effect on hERG potassium channel.
# 4.5 The whole dilution process of compound preparation was completed by Bravo instrument.
# The experimental data were analyzed by GraphPad Prism 5.0 software.
# NLRP3 = molecular target: T2, NLRP3 (Homo sapiens, UniProt Q96P20); assay: Detecting IC50 of NLRP3 inhibitor by using THP-1 cells (IL-1β secretion, CBA); assay type: cell-based; conditions: PMA/LPS/ATP, IL-1β in supernatant
# T2 construct: This experiment utilized the human-derived monocyte cell line THP1; endogenous in cells; host or cells: THP-1 (human monocyte line, PMA-differentiated into macrophages)
# T2 sequence (Q96P20 whole entry): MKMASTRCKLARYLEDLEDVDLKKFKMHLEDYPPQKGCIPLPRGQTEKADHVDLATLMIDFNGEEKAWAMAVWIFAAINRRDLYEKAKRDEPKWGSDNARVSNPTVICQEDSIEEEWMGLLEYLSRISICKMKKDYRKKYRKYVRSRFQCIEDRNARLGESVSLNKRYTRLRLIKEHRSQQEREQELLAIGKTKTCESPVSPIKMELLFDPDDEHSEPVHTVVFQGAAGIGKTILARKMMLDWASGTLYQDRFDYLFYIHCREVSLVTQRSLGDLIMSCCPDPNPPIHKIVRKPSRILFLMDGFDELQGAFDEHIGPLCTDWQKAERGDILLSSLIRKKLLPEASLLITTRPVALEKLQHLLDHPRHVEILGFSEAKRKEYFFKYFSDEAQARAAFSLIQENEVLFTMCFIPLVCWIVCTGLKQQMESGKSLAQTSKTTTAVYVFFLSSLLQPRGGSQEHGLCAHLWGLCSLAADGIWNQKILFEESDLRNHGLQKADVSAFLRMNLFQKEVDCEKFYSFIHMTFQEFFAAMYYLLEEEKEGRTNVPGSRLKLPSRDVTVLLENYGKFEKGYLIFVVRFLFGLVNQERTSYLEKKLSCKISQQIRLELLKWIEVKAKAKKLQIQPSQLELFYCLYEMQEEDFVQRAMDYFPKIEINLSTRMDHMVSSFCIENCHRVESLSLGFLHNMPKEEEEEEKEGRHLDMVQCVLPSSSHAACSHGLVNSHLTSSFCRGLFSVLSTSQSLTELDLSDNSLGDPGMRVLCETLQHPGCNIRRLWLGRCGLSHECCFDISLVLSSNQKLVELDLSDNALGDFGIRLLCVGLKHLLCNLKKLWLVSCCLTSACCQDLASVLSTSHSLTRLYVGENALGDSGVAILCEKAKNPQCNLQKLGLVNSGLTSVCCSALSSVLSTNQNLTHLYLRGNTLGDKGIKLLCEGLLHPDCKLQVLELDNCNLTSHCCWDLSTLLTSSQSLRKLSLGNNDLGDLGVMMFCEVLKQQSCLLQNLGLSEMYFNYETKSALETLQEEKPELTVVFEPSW
# From the text: 1. Experimental principle: This experiment utilized the human-derived monocyte cell line THP1 to investigate the inhibitory activity (IC50) of NLRP3 inhibitor on cellular IL-1β secretion. PMA (12-O-tetradecanoylphorbol-13-acetate) was used to differentiate the monocyte cell line THP1 into mature macrophages, which were then stimulated using LPS (lipopolysaccharide), an agonist of the Toll-like receptor TLR4, to activate the transcriptional activity of the inflammasome NLRP3 and the expression of pro-IL-1β, a precursor of IL-1β. At this time, the inhibitor of NLRP3 was added, and then ATP (adenosine triphosphate) was added to further mature and activate NLRP3, and activate downstream caspase-1. Activated caspase-1 may enzymatically process pro-IL-1β into mature IL-1β that can be secreted.
# (1) The density of THP1 cells was adjusted to 5×10^5 cells/mL, then PMA was added, and the final concentration was adjusted to 100 ng/mL. The cells were inoculated 200 μL/well into a 96-well flat-bottom plate, stimulated overnight (<16 hours if possible) at 37° C. and 5% CO2.
# (2) The supernatant was discarded the next day, and then the cells were carefully washed twice with Dulbecco's phosphate-buffered saline (200 μL/time).
# (3) The cells were stimulated with LPS at a final concentration of 100 ng/mL, added to a 96-well plate (200 μL/well), and cultured at 37° C. and 5% CO2 for 3 hours.
# The cells were incubated for 1 hour in a 37° C., 5% CO2 incubator.
# (5) ATP was added to each well with a final concentration of 5 mM, and cultured overnight (>18 hours) at 37° C. and 5% CO2.
# (6) On the third day, 5 μL of the supernatant was taken, diluted 10-fold, and the content of IL-1β in the supernatant was detected by cytometric bead array (CBA).
# [3] = In vivo pharmacokinetic evaluation in SD rats; conditions: male, rat, plasma, dose IV/PO 1/2 mg/kg; for half-life / clearance / Vd: 1 mg/kg; for half-life: IV, read-out: Half-life T1/2 (IV) (converted); for clearance: read-out: Clearance rate CL; for Vd: read-out: Tissue distribution Vdss; for AUC(0-t): PO, read-out: Area under drug-time curve AUC0-last PO; for bioavailability: read-out: Bioavailability F; for Cmax: read-out: Peak concentration Cmax
# Experimental: Experimental Example 3: In Vivo Pharmacokinetic Evaluation of Compounds in SD Rats
# Experimental Purpose: To Test the In Vivo Pharmacokinetics of the Compounds in SD Rats
# The rodent pharmacokinetic characteristics after intravenous injection and oral administration of the compounds were tested using a standard protocol. The candidate compound was prepared as a clear solution during the experiment and given to SD rats for single intravenous injection and oral administration. The vehicle for intravenous injection and oral administration was a mixed vehicle composed of 5% dimethyl sulfoxide and 95% 5% solutol. Four male SD rats were used in this project. Two SD rats were administered intravenously, and plasma samples were collected at 0.083, 0.25, 0.5, 1, 2, 4, 8, and 24 hours after administration. The other two SD rats were administered orally by gavage, and plasma samples were collected at 0.25, 0.5, 1, 2, 4, 8, and 24 hours after administration. The plasma concentration was quantitatively analyzed by LC-MS/MS analysis method, and the pharmacokinetic parameters were calculated, such as peak concentration (Cmaz), clearance rate (CL), half-life (T1/2), […] (Vdss), area under drug-time curve (AUC0-last), bioavailability (F).
structure (smiles),measurement,setting,value
Cc1cc(N[C@@H]2CCCN(CC#N)C2)nnc1-c1ccc(C2CC2)cc1O [Compound 23],half-life,"[1]; 1 mg/kg, dose IV/PO 1/2 mg/kg",1.24 h
same,clearance,"[1]; 1 mg/kg, dose IV/PO 1/2 mg/kg",6.49 mL/min/kg
same,Vd,"[1]; 1 mg/kg, dose IV/PO 1/2 mg/kg",0.618 L/kg
same,AUC(0-t),[1]; dose IV/PO 1/2 mg/kg,10.4 µM·h
same,bioavailability,[1]; dose IV/PO 1/2 mg/kg,79.9%
same,Cmax,[1]; dose IV/PO 1/2 mg/kg,3.84 µM
same,IC50,[2],> 40000 nM
same,IC50,NLRP3,4.7 nM
Cc1cc(NC[C@@H](C)O)nnc1-c1ccc2sccc2c1O [Hydrochloride of compound 57],IC50,[2],> 40000 nM
same,IC50,NLRP3,3.37 nM
Cc1cc(N[C@@H]2CCCN(C)C2)nnc1-c1ccc2sccc2c1O [Hydrochloride of compound 20],half-life,"[1]; 2 mg/kg, dose IV/PO 2/10 mg/kg",3.26 h
same,clearance,"[1]; 2 mg/kg, dose IV/PO 2/10 mg/kg",28.7 mL/min/kg
same,Vd,"[1]; 2 mg/kg, dose IV/PO 2/10 mg/kg",7.03 L/kg
same,AUC(0-t),[1]; dose IV/PO 2/10 mg/kg,16 µM·h
same,bioavailability,[1]; dose IV/PO 2/10 mg/kg,96.5%
same,Cmax,[1]; dose IV/PO 2/10 mg/kg,4.29 µM
same,half-life,[3],1.81 h
same,clearance,[3],48.5 mL/min/kg
same,Vd,[3],6.79 L/kg
same,AUC(0-t),[3],0.926 µM·h
same,bioavailability,[3],49.7%
same,Cmax,[3],0.204 µM
same,IC50,[2],10300 nM
same,IC50,NLRP3,0.08 nM
Cc1cc(N[C@@H]2CCCN(CC#N)C2)nnc1-c1ccc2sccc2c1O [Compound 53],half-life,[3],1.12 h
same,clearance,[3],10.3 mL/min/kg
same,Vd,[3],0.796 L/kg
same,AUC(0-t),[3],4.69 µM·h
same,bioavailability,[3],49.8%
same,Cmax,[3],1.52 µM
same,IC50,[2],17100 nM
same,IC50,NLRP3,0.74 nM
Cc1cc(N[C@@H]2CCCC[C@H]2O)nnc1-c1ccc2sccc2c1O [Hydrochloride of compound 60],half-life,"[1]; 2 mg/kg, dose IV/PO 2/10 mg/kg",1.45 h
same,clearance,"[1]; 2 mg/kg, dose IV/PO 2/10 mg/kg",12.8 mL/min/kg
same,Vd,"[1]; 2 mg/kg, dose IV/PO 2/10 mg/kg",1.08 L/kg
same,AUC(0-t),[1]; dose IV/PO 2/10 mg/kg,48.1 µM·h
same,bioavailability,[1]; dose IV/PO 2/10 mg/kg,147%
same,Cmax,[1]; dose IV/PO 2/10 mg/kg,22.2 µM
same,half-life,[3],1.08 h
same,clearance,[3],10 mL/min/kg
same,Vd,[3],0.402 L/kg
same,AUC(0-t),[3],6.66 µM·h
same,bioavailability,[3],71.1%
same,Cmax,[3],2.61 µM
same,IC50,[2],> 40000 nM
same,IC50,NLRP3,0.436 nM
Cc1cc(N[C@@H]2CCCN(CC#N)C2)nnc1-c1ccc2c(c1O)CCC2 [Compound 12a],IC50,[2],31500 nM
same,IC50,NLRP3,0.97 nM
"Cc1cc(NC2CN(C)CC(F)(F)C2)nnc1-c1ccc2sccc2c1O (single isomer, unassigned) [Compound 70b]",IC50,[2],> 40000 nM
same,IC50,NLRP3,3.33 nM
Cc1cc(N[C@@H]2CCCN(C3COC3)C2)nnc1-c1ccc2c(c1O)CCC2 [Compound 13],IC50,[2],21100 nM
same,IC50,NLRP3,1.55 nM
Cc1cc(N[C@@H]2CCCN(C3COC3)C2)nnc1-c1ccc(C2CC2)cc1O [Compound 22],half-life,"[1]; 1 mg/kg, dose IV/PO 1/2 mg/kg",1.13 h
same,clearance,"[1]; 1 mg/kg, dose IV/PO 1/2 mg/kg",9.56 mL/min/kg
same,Vd,"[1]; 1 mg/kg, dose IV/PO 1/2 mg/kg",0.718 L/kg
same,AUC(0-t),[1]; dose IV/PO 1/2 mg/kg,5.33 µM·h
same,bioavailability,[1]; dose IV/PO 1/2 mg/kg,62.4%
same,Cmax,[1]; dose IV/PO 1/2 mg/kg,3.22 µM
same,IC50,[2],> 40000 nM
same,IC50,NLRP3,9.2 nM
Cc1cc(N[C@@H]2CCCN(C3COC3)C2)nnc1-c1ccc(-c2ccc(F)cc2)cc1O [Compound 21],IC50,[2],10600 nM
same,IC50,NLRP3,62.7 nM
Cc1cc(N[C@H]2COC[C@@H]2O)nnc1-c1ccc2sccc2c1O [Hydrochloride of compound 59],IC50,[2],> 40000 nM
same,IC50,NLRP3,1.73 nM
Cc1cc(N[C@H]2CN3CCC2CC3)nnc1-c1ccc2c(c1O)CCC2 [Hydrochloride of compound 7],IC50,[2],37500 nM
same,IC50,NLRP3,5.72 nM
Cc1cc(N[C@@H]2CCCN(CC(F)(F)F)C2)nnc1-c1ccc2sccc2c1O [Compound 48],IC50 at 2.5 min,"[2]; human, CHO cells that express hERG (CHO-hERG)",≥ 42600 nM
same,IC50,NLRP3,2.87 nM
"Cc1cc(NC2CN(C)CC(F)(F)C2)nnc1-c1ccc2sccc2c1O (single isomer, unassigned) [Compound 70a]",IC50,[2],34200 nM
same,IC50,NLRP3,23.4 nM
